The source of these data is patent publication US7919091B2, “Lipolysis stimulated receptor (LSR) specific antibodies” (Serono Genetics Institute S.A., priority 1997, dated 2011).

One assay concerns LSR receptors. It is filed as cell-based, rat. Particulars: after leptin; 5 μM cycloheximide or 2.5 μM cytochalasin B, 30 min 37° C. On the procedure:
Primary cultures of rat hepatocytes are incubated for 30 min at 37° C. in the presence or in the absence of 20 ng/ml of leptin, for 10 min at 37° C. in the presence of 0.8 mM oleate. The cells are washed with PBS buffer precooled to 4° C., and then incubated for 2 hours at 4° C. in the presence of increasing concentrations of ^125I-LDL. The cells are then washed, lysed and the quantity of bound ^125I-LDL is measured.
The initial conditions are identical to those described above; after incubation with leptin, the cells are incubated for 30 min at 37° C. with 5 μM cycloheximide, 5 μM colchicine or 2.5 μM cytochalasin B. The cells are then incubated for 10 min at 37° C. in the presence of 0.8 mM oleate. The cells are then washed with PBS buffer precooled to 4° C., and then incubated for 2 hours at 4° C. in the presence of 50 μg/ml of ^125I-LDL. 2 measurements are carried out, and the mean results are presented.

Another assay deals with T1, LSR (Rattus norvegicus, UniProt Q9WU74).
T1 sequence (Q9WU74 36-593): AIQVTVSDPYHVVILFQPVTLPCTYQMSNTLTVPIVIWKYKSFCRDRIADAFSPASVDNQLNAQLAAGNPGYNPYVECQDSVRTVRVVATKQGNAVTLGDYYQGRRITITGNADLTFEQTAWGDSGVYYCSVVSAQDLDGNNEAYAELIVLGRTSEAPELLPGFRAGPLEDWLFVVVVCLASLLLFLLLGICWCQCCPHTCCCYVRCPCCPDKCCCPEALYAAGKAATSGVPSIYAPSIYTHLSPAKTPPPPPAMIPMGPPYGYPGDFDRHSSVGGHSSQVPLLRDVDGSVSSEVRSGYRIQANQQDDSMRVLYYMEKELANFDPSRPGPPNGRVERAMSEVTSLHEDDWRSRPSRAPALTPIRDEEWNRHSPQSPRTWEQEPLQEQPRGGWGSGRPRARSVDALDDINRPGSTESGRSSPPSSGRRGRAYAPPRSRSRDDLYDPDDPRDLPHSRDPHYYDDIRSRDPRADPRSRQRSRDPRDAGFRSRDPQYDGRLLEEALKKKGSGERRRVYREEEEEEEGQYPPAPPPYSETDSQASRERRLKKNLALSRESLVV
T1 sequence (Q9WU74 36-525 isoform Q9WU74-3 limits assumed): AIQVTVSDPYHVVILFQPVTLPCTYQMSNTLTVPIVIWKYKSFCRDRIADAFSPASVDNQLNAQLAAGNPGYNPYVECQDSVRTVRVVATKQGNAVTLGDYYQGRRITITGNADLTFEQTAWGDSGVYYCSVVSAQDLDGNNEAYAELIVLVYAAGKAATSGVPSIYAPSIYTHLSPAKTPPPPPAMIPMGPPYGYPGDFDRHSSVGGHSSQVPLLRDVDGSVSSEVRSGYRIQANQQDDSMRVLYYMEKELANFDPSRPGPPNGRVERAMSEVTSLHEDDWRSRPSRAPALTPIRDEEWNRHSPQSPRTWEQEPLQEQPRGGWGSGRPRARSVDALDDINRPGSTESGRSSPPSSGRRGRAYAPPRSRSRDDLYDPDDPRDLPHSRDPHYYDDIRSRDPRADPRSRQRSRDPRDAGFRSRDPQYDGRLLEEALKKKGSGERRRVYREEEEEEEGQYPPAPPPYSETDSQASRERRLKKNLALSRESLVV
Put plainly: Effect of C1q on binding, internalization and degradation of LDLs by hepatocytes in primary culture. It is filed as cell-based. How it is done: The LSR activity in the primary cultures of rat hepatocytes is measured by the binding, internalization and degradation of ^125I-LDL and ^125I-VLDL (LDL: low-density lipoprotein; VLDL: very low-density lipoprotein), as described in Bihain and Yen, 1992 and Mann et al., 1995.
It has been shown that gC1q-R could bind the globular head of […]. We sought to use this property of C1q to displace gC1q-R combined with LSR, and we measured the effect of increasing doses of C1q on the binding, internalization and degradation of the LDLs by hepatocytes in primary culture.

As to `C[C@@H]1C[C@@H]([C@H](O)CC2CC(=O)NC(=O)C2)C(=O)[C@@H](C)C1` [cycloheximide], in the assay with LSR receptors, the “induction by leptin of the LSR activity (increase in apparent number of receptors)” value is recorded as “partially inhibited”.

On to `C=C1[C@@H](C)[C@H]2[C@H](Cc3ccccc3)NC(=O)[C@]23OC(=O)/C=C/[C@H](O)CCC[C@@H](C)C/C=C/[C@H]3[C@@H]1O` [cytochalasin B], for which the “induction by leptin of the LSR activity (increase in apparent number of receptors)” value in the assay on LSR receptors is “inhibited”.

Turning to “C1q: human complement factor C1q, binds gC1q-R”, the “capture and degradation of LDLs” value with LSR (C1q, in the presence of oleate) is on record as “less substantial, but nevertheless significant, increase”; in the assay with LSR (human C1q, in the absence of oleate) it was “increase”.
